Measurements published in patent US11596626B2, “Compound for use against pathogenic Neisseria and Haemophilus species and Moraxella catarrhalis” (priority 2017, dated 2023).
“Also recorded” adds a separate entry of the source.

How the values were obtained:
[1] = tested on: multidrug-resistant N. gonorrhoeae isolate from Slovenia; assay: Growth curves in liquid culture (optical density) vs DMSO control; assay type: cell-based, Neisseria gonorrhoeae
Description: Growth experiments with NQNO were conducted against Neisseria gonorrhoeae strain MS11 (Edwards, M., et al., Antigenic analysis of gonococcal pili using monoclonal antibodies, J Exp Med, 1984. 160(6): p. 1782-91) and a multidrug-resistant N. gonorrhoeae isolate from Slovenia (Unemo M, Golparian O, Potočnik M, Jeverica S. Treatment failure of pharyngeal gonorrhoea with internationally recommended first-line ceftriaxone verified in Slovenia, September 2011. Euro Surveill. 2012; 17(25):pii=20200), Neisseria macacae, and Lactobacillus brevis. The bacteria were inoculated in GC (Difco™ GC medium Ref. 228950, BD Becton Dickinson) and PPM broth (15 g/L Proteon Pepton, 1 g/L soluble starch, 5 g/L NaCl, 4 g/L KH2PO4, 1 g/L K2HPO4, pH 7.5) (Neisseriae) or TSB (BBL™ Trypticase Soy Broth Ref 211768, BD Becton Dickinson) (Lactobacillus) supplemented with solvent (DMSO) or the indicated concentrations of NQNO (5-50 04) and their growth at 37° C. was monitored over the course of 10 h by optical density readings in 30 minute intervals. […]
Before every experiment, bacteria were pre-cultured in 5 ml liquid medium for at least 2 hours then harvested and resuspended in PBS (phosphate buffered saline). Optical density (OD) was determined and a volume equal to an OD of 0.2 was inoculated into 5 ml of the respective medium. […] Optical density was determined every 0.5 h.

Neisseria macacae = assay: as above; assay type: cell-based; settings: 5-50 μM, FIG. 3
Description: (§1) Growth experiments with NQNO were conducted against Neisseria gonorrhoeae strain MS11 (Edwards, M., et al., Antigenic analysis of gonococcal pili using monoclonal antibodies, J Exp Med, 1984. 160(6): p. 1782-91) and a multidrug-resistant N. gonorrhoeae isolate from Slovenia (Unemo M, Golparian O, Potočnik M, Jeverica S. Treatment failure of pharyngeal gonorrhoea with internationally recommended first-line ceftriaxone verified in Slovenia, September 2011. Euro Surveill. 2012; 17(25):pii=20200), Neisseria macacae, and Lactobacillus brevis. The bacteria were inoculated in GC (Difco™ GC medium Ref. 228950, BD Becton Dickinson) and PPM broth (15 g/L Proteon Pepton, 1 g/L soluble starch, 5 g/L NaCl, 4 g/L KH2PO4, 1 g/L K2HPO4, pH 7.5) (Neisseriae) or TSB (BBL™ Trypticase Soy Broth Ref 211768, BD Becton Dickinson) (Lactobacillus) supplemented with solvent (DMSO) or the indicated concentrations of NQNO (5-50 04) and their growth at 37° C. was monitored over the course of 10 h by optical density readings in 30 minute intervals.
(§2) Neisseria strains were cultured in PPM medium (15 g/l Proteon Pepton, 1 g/l soluble starch, 5 g/l NaCl, 4 g/l KH2PO4, 1 g/l K2HPO4, pH 7.5) for liquid culture and on GC plates (BD Difco™ GC Medium Base) supplemented with 1% vitamin mix (100 g/l glucose, 10 WI glutamine, 26 g/l L-cystein, 100 mg/l carboxylase, 250 mg/l NAD, 500 μl Fe(NO3)3, 150 mg/l arginine, 3 mg/l thiamine-HCl, 10 mg/l vitamine B12, 13 mg/I p-amino benzoic acid, 1.1 g/l L-cystin, 1 g/l adenine; 500 mg/l uracil, 30 mg/I guanine). […]
(§3) Before every experiment, bacteria were pre-cultured in 5 ml liquid medium for at least 2 hours then harvested and resuspended in PBS (phosphate buffered saline). Optical density (OD) was determined and a volume equal to an OD of 0.2 was inoculated into 5 ml of the respective medium. […] Samples were incubated for either 10.5 hours, until they reached stationary phase (three measured values in stationary phase) or until they reached an OD of 2.5. Optical density was determined every 0.5 h.

[2] = tested on: Neisseria gonorrhoeae strain MS11; assay: as above; assay type: cell-based
Description: as §1, §2, §3

[3] = tested on: immortalized human vaginal epithelial cells (MS74); assay: MTT assay of metabolic activity (cytotoxicity); assay type: cell-based; settings: FIG. 13
Source text: (§4) HeLa S3 cells were cultivated in Dulbecco's modified Eagle's medium (DMEM) medium supplemented with 10% fetal calf serum and passaged every 2-3 days. Primary human vaginal epithelial cells (hVEC/MS74) were obtained from A. J. Schaeffer (Feinberg School of Medicine, Northwestern University, Chicago, Ill.) and are derived from vaginal tissue of a post-menopausal person. The cell line was created through immortalization of these cells with human papilloma virus 16, E6 and E7 genes according to literature (N. Rajan et. al., Characterization of an immortalized human vaginal epithelial cell line. J Urol 163, 616-622 (2000)). MS74 were cultured on gelatine-coated cell culture dished using Dulbecco's modified Eagle's medium (DMEM) medium (biochrom) supplemented with 10% fetal calf serum, 1% non-essential amino acids and 1% pyruvate at 37° C. in 5% CO2 and subcultured when half confluency was reached.
All plates were coated overnight at 4° C. with 0.1% gelatine in PBS before use. 2×10^4 HeLa S3 or MS74 cells were incubated with the mentioned concentrations of NQNO in 100 μl of their respective medium and incubated for 2 days at 37° C. and 5% CO2. 10 μl of MTT solution (12 mM in PBS, sterile filtered with […]) were added. The cells were subsequently incubated for 2 h at 37° C. […] 0D550 was measured using a Thermo Fisher Varioskan Flash spectrophotometer.

[4] = Tissue integrity and tolerability after topical vaginal application in CEAtg mice; assay type: in vivo
Description: 6 to 8 week old, female CEA-transgenic mice were infected with N. gonorrhoeae. 2 h after infection, the animals were treated with 20 μl buffer containing solvent (DMSO) or 50 μM NQNO (Compound represented by the Formula (5)). 20 h later, the genital tract was excised and cryosections were stained for cell nuclei (Hoechst; blue), human CEA (red) and N. gonorrhoeae (gonococci, green) (FIG. 8).
Additional cryosections from the same samples were stained for cell nuclei (Hoechst; blue), human collagen (red) and N. gonorrhoeae (gonococci, green) (FIG. 9).
6 to 8 week old, female CEA-transgenic mice were treated with 20 μl buffer containing solvent (DMSO) or 50 μM NQNO (Compound represented by the Formula (5)). 20 h later, the genital tract was excised, fixed, paraffin embedded and tissue sections were stained with HE (Haematoxilin/Eosin) solution.
In particular, in the above experiment the genital tract of infected and NQNO/DMSO or DMSO treated animals was excised and placed in 4% neutral buffer containing formalin overnight followed by 0.4% PFA (paraformaldehyde) treatment. The tissue was then dehydrated and embedded in paraffin. 10 μm serial sections were cut, deparaffinized and rehydrated in a graded series (100% to 75%) of ethanol. Sections were serially stained with Hematoxilin solution according to Mayer (Sigma) and 0.5% Eosin G solution (Roth).

MS74 cells = assay: Microscopic evaluation of treated cells; assay type: cell-based, human; settings: up to 50 μM, 2 days, FIG. 14
Source text: FIG. 14: Microscopic evaluation of MS74 cells treated for two days with the indicated concentrations of NQNO compared to DMSO control.

HeLa cells = assay: MTT assay of metabolic activity (cytotoxicity); assay type: cell-based, human
Description: HeLa cells in 24-well plate were incubated for 24 h with concentrations of 0.5 to 10 μM NQNO or solvent (DMSO) as a control. Metabolic activity as a measure of mitochondrial respiration was recorded using 3-(4,5-Dimethylthiazol-2-yl)-2,5-diphenyltetrazoliumbromid (MTT) as reporting agent, Activity was measured with a plate reader at 550 nm, (FIG. 6). Shown are mean values+/S.D. of four replicate wells.
as §4, with “MS74 were cultured on gelatine-coated cell culture dished using Dulbecco's modified Eagle's medium (DMEM) medium (biochrom) supplemented with 10% fetal calf serum, 1% non-essential amino acids and 1% pyruvate at 37° C. in 5% CO2 and subcultured when half confluency was reached.” left out
All plates were coated overnight at 4° C. with 0.1% gelatine in PBS before use. […] 0D550 was measured using a Thermo Fisher Varioskan Flash spectrophotometer.

CCCCCCCCCc1cc(=O)c2ccccc2n1O [NQNO, 1-Hydroxy-2-nonylquinolin-4(1H)-one]
Concentration leading to complete growth inhibition ([1]; 37° C., 10 h, FIG. 2): ≤ 5 µM
Concentration leading to complete growth inhibition ([1]; mass concentration given for 5 μM): < 1.4 µg/mL
Effect on growth (Neisseria macacae): did not compromise the growth
Concentration leading to complete abrogation of gonococcal growth in vitro ([2]; N. gonorrhoeae MS11, 37° C., growth monitored over 10 h, FIG. 1): ≤ 5 µM
Concentration leading to complete abrogation of gonococcal growth in vitro ([2]; N. gonorrhoeae MS11, mass concentration given for 5 μM): < 1.4 µg/mL
Metabolic activity (MTT) ([3]; 50 μM, two days): only slightly reduced metabolic activity
Cytotoxicity (metabolic activity, MTT) ([3]; up to 25 μM, 2 days): not harmed
Histology of vaginal tract epithelium (HE staining) ([4]; CEAtg mice, 20 μl of 50 μM, 20 h, FIG. 10): intact striated epithelium
Integrity of mucosal surface and subepithelial tissue (CEA and collagen staining) ([4]; infected CEAtg mice, 20 μl of 50 μM topical, 20 h, FIGS. 8 and 9): continuous and unaltered mucosal surface; also recorded: does not damage the mucosal surface
Signs of discomfort in treated mice ([4]; single topical application): did not show any signs of discomfort
Morphology and overall phenotype of cells (MS74 cells): did not change
Cytotoxicity (metabolic activity, MTT) (HeLa cells; 10 μM, up to 24 h, preliminary experiment, FIG. 6): does not lead to cytotoxicity
Cytotoxicity (metabolic activity, MTT) (HeLa cells; up to 10 μM, 48 h, FIG. 12): did not exhibit signs of cytotoxicity
